Data taken from ChEMBL document CHEMBL1201862, “PubChem BioAssay data set” (2004).
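Briefly, cells in 96-well plates were exposed to five compound concentrations for 48 h, and endpoints were estimated by linear interpolation. GI50 = concentration required for 50% inhibition of growth.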 The source made the active and inactive calls. No stated cut-off is given here; in the data, active = GI50 up to about 1.1 µM and inactive = higher.

Legend:
Test in all cases: DTP human tumour cell line panel, 48 h
SF-539 = system: SF-539
SN12C = system: SN12C
HOP-62 = system: HOP-62
T47D = system: T47D
SNB-19 = system: SNB-19
SNB-75 = system: SNB-75
ACHN = system: ACHN
TK-10 = system: TK-10
HCC 2998 = system: HCC 2998
K562 = system: K562
SK-OV-3 = system: SK-OV-3
HCT-15 = system: HCT-15
786-0 = system: 786-0
DU-145 = system: DU-145
KM12 = system: KM12
UO-31 = system: UO-31
HCT-116 = system: HCT-116
MOLT-4 = system: MOLT-4
CCRF-CEM = system: CCRF-CEM
MDA-MB-231 = system: MDA-MB-231
M14 = system: M14
EKVX = system: EKVX
UACC-257 = system: UACC-257
NCI-H522 = system: NCI-H522
NCI/ADR-RES = system: NCI/ADR-RES
Hs-578T = system: Hs-578T
COLO 205 = system: COLO 205
SR = system: SR
OVCAR-8 = system: OVCAR-8
SF-295 = system: SF-295
SF-268 = system: SF-268
Malme-3M = system: Malme-3M
PC-3 = system: PC-3
NCI-H460 = system: NCI-H460
MDA-MB-435 = system: MDA-MB-435
SK-MEL-28 = system: SK-MEL-28
A549 = system: A549
A498 = system: A498
SK-MEL-5 = system: SK-MEL-5
OVCAR-4 = system: OVCAR-4
RPMI-8226 = system: RPMI-8226
OVCAR-3 = system: OVCAR-3
LOX IMVI = system: LOX IMVI
BT-549 = system: BT-549
HL-60 = system: HL-60
SW-620 = system: SW-620
SK-MEL-2 = system: SK-MEL-2
UACC-62 = system: UACC-62
HT-29 = system: HT-29
CAKI-1 = system: CAKI-1
OVCAR-5 = system: OVCAR-5
U-251 = system: U-251
RXF 393 = system: RXF 393
NCI-H23 = system: NCI-H23
MDA-N = system: MDA-N
MCF7 = system: MCF7
IGROV-1 = system: IGROV-1
NCI-H226 = system: NCI-H226

For `CC1OC(OC2C(CO)OC(O[C@H]3CC[C@@]4(C)C(=CC[C@H]5[C@@H]6C[C@@H]7O[C@](O)(CC[C@@H](C)COC8OC(CO)C(O)C(O)C8O)[C@@H](C)[C@@H]7[C@@]6(C)CC[C@@H]54)C3)C(OC3OC(C)C(O)C(O)C3O)C2O)C(O)C(O)C1O` (stereo partly specified), the GI50 (SF-539) was 1.95 µM (inactive), the GI50 (SN12C) was 2.2 µM (inactive) and the GI50 (HOP-62) was 2.16 µM (inactive). For the same molecule, the GI50 (T47D) was 4.05 µM (inactive), the GI50 (SNB-19) was 2.23 µM (inactive) and the GI50 (SNB-75) was 1.48 µM (inactive). For the same molecule, the GI50 (ACHN) was 5.28 µM (inactive), the GI50 (TK-10) was 8.45 µM (inactive) and the GI50 (HCC 2998) was 2.9 µM (inactive). The GI50 (K562) was 5.07 µM (inactive), the GI50 (SK-OV-3) was 2.84 µM (inactive) and the GI50 (HCT-15) was 1.89 µM. The GI50 (786-0) was 2.07 µM (inactive), the GI50 (DU-145) was 2.3 µM (inactive) and the GI50 (KM12) was 2.24 µM (inactive). The GI50 (UO-31) was 2.82 µM (inactive), the GI50 (HCT-116) was 2.08 µM (inactive) and the GI50 (MOLT-4) was 1.58 µM (inactive). For the same molecule, the GI50 (CCRF-CEM) was 2.3 µM (inactive), the GI50 (MDA-MB-231) was 6.11 µM (inactive) and the GI50 (M14) was 1.91 µM (inactive). The GI50 (EKVX) was 9.38 µM (inactive), the GI50 (UACC-257) was 4.02 µM (inactive) and the GI50 (NCI-H522) was 2.07 µM (inactive). For the same molecule, the GI50 (NCI/ADR-RES) was 2.06 µM (inactive), the GI50 (Hs-578T) was 33.1 µM (inactive) and the GI50 (COLO 205) was 2.56 µM (inactive). For the same molecule, the GI50 (SR) was 3.23 µM (inactive), the GI50 (OVCAR-8) was 2.19 µM (inactive) and the GI50 (SF-295) was 3.91 µM (inactive). The GI50 (SF-268) was 3.23 µM (inactive), the GI50 (Malme-3M) was 1.89 µM (inactive) and the GI50 (PC-3) was 2.41 µM (inactive). For the same molecule, the GI50 (NCI-H460) was 1.88 µM (inactive), the GI50 (MDA-MB-435) was 3.06 µM (inactive) and the GI50 (SK-MEL-28) was 2.46 µM (inactive). The GI50 (A549) was 1.57 µM (inactive), the GI50 (A498) was > 100 µM (inactive) and the GI50 (SK-MEL-5) was 4.21 µM (inactive). The GI50 (OVCAR-4) was 6.73 µM (inactive), the GI50 (RPMI-8226) was 2.34 µM (inactive) and the GI50 (OVCAR-3) was 12.9 µM (inactive). For the same molecule, the GI50 (LOX IMVI) was 1.56 µM (inactive), the GI50 (BT-549) was 3.88 µM (inactive) and the GI50 (HL-60) was 2.13 µM (inactive). The GI50 (SW-620) was 1.45 µM (inactive), the GI50 (SK-MEL-2) was 4.98 µM (inactive) and the GI50 (UACC-62) was 2.52 µM (inactive). For the same molecule, the GI50 (HT-29) was 1.98 µM (inactive), the GI50 (CAKI-1) was 2.47 µM (inactive) and the GI50 (OVCAR-5) was 2.52 µM (inactive). For the same molecule, the GI50 (U-251) was 1.87 µM (inactive), the GI50 (RXF 393) was 2.4 µM (inactive) and the GI50 (NCI-H23) was 3.55 µM (inactive). The GI50 (MDA-N) was 2.89 µM (inactive).
For `O=C(c1ccc(Cl)cc1)N(C(=O)N1CCCCC1)c1ccccc1`, the GI50 (SF-539) was > 100 µM (inactive), the GI50 (SN12C) was > 100 µM (inactive) and the GI50 (T47D) was 17.6 µM (inactive). For the same molecule, the GI50 (SNB-19) was > 100 µM (inactive), the GI50 (ACHN) was > 100 µM (inactive) and the GI50 (MCF7) was 65.5 µM (inactive). For the same molecule, the GI50 (K562) was 31 µM (inactive), the GI50 (SK-OV-3) was 33.9 µM (inactive) and the GI50 (HCT-15) was 79.4 µM. The GI50 (786-0) was > 100 µM (inactive), the GI50 (DU-145) was > 100 µM (inactive) and the GI50 (KM12) was > 100 µM (inactive). For the same molecule, the GI50 (UO-31) was 34.7 µM (inactive), the GI50 (HCT-116) was > 100 µM (inactive) and the GI50 (MOLT-4) was 18.9 µM (inactive). The GI50 (CCRF-CEM) was 23.7 µM (inactive), the GI50 (MDA-MB-231) was 42.5 µM (inactive) and the GI50 (M14) was > 100 µM (inactive). For the same molecule, the GI50 (EKVX) was 33.7 µM (inactive), the GI50 (NCI/ADR-RES) was 66.5 µM (inactive) and the GI50 (Hs-578T) was 41.1 µM (inactive). The GI50 (COLO 205) was 85.9 µM (inactive), the GI50 (OVCAR-8) was > 100 µM (inactive) and the GI50 (SF-268) was > 100 µM (inactive). For the same molecule, the GI50 (Malme-3M) was 37.3 µM (inactive), the GI50 (IGROV-1) was 56.4 µM (inactive) and the GI50 (PC-3) was 17.7 µM (inactive). The GI50 (MDA-MB-435) was > 100 µM (inactive), the GI50 (SK-MEL-28) was > 100 µM (inactive) and the GI50 (A498) was > 100 µM (inactive). The GI50 (SK-MEL-5) was 34.2 µM (inactive), the GI50 (RPMI-8226) was 22.6 µM (inactive) and the GI50 (OVCAR-3) was > 100 µM (inactive). For the same molecule, the GI50 (NCI-H226) was > 100 µM (inactive), the GI50 (LOX IMVI) was 68.1 µM (inactive) and the GI50 (BT-549) was 48.3 µM (inactive). For the same molecule, the GI50 (HL-60) was 20.1 µM (inactive), the GI50 (SW-620) was > 100 µM (inactive) and the GI50 (SK-MEL-2) was 25.2 µM (inactive). The GI50 (UACC-62) was > 100 µM (inactive), the GI50 (HT-29) was > 100 µM (inactive) and the GI50 (CAKI-1) was > 100 µM (inactive). For the same molecule, the GI50 (OVCAR-5) was > 100 µM (inactive), the GI50 (U-251) was > 100 µM (inactive) and the GI50 (NCI-H23) was 85.5 µM (inactive). The GI50 (MDA-N) was > 100 µM (inactive).
